Patent publication US4414216A, “Tetrahydrofuran compounds and analogs thereof” (Yoshitomi Phamaceutical Industries, Ltd., priority 1981, dated 1983)
Where two headings read alike, the source gives them in different places.

Key:
[1] = system: Motor activity (apomorphine hydrochloride); test: Antiapomorphine effect, Experiment 1: motor activity (Automex) after apomorphine; type: in vivo, male dd mice; conditions: 30 mg/kg intraperitoneal, 30 min before 0.5 mg/kg s.c. apomorphine hydrochloride, activity during 30 minutes, control 566
Protocol: (§1) Antiapomorphine effect was measured by the following methods.
Motor activity was measured with Automex (Columbus Instruments, U.S.A.) in two groups of 3 male dd mice. Thirty minutes after intraperitoneal administration of each test compound (30 mg/kg), 0.5 mg/kg of apomorphine hydrochloride was injected subcutaneously. Immediately after the apomorphine injection, the animals were placed in the transparent plastic cage (26×42×20 cm) and motor activity during 30 minutes was measured. Student's was calculated to indicate the level of significance of the change from control.

[2] = system: Motor activity (apomorphine hydrochloride); test: Antiapomorphine effect, Experiment 2: motor activity (Animex) after apomorphine, ED50; type: in vivo, male dd mice; conditions: Mus musculus, read-out: ED50 (dose which reduced the motor activity by 50% as compared with control)
Protocol: as §1
Motor activity was measured with Animex (Columbus Instruments, U.S.A.) in three groups of 5 male dd mice. Sixty minutes after oral administration of each test compound, 0.5 mg/kg of apomorphine hydrochloride was injected subcutaneously. The measurement of motor activity during 20 minutes started just after the apomorphine injection. ED50 was determined graphically as the dose which reduced the motor activity by 50% as compared with control.

Structure (SMILES): Fc1ccc(C2CC(CN3CCC(n4c(=S)[nH]c5ccccc54)CC3)CO2)cc1 (stereo not shown) [A]
- Motor Activity [1]: 1
- ED50 ([2]; po): 3.2 mg/kg

Structure (SMILES): O=c1[nH]c2cc(Cl)ccc2n1C1CCN(CC2CCC(c3ccc(F)cc3)O2)CC1 (stereo not shown) [H]
- Motor Activity [1]: 5
- ED50 ([2]; po): 12 mg/kg

Structure (SMILES): O=C1CCN(C2CCN(CC3COC(c4ccc(F)cc4)C3)CC2)C(=O)N1c1ccccc1 (stereo not shown) [D]
- Motor Activity [1]: 28
- ED50 ([2]; Experiment 2, oral, 60 min before 0.5 mg/kg s.c. apomorphine hydrochloride, activity during 20 minutes): 25 mg/kg

Structure (SMILES): O=c1[nH]c2cc(Cl)ccc2n1C1CCN(C[C@H]2CO[C@H](c3ccc(F)cc3)C2)CC1 (relative stereo) [G]
- Motor Activity [1]: 8
- ED50 ([2]; po): 0.9 mg/kg

Structure (SMILES): O=c1[nH]c2cc(Cl)ccc2n1C1CCN(C[C@@H]2CO[C@H](c3ccc(F)cc3)C2)CC1 (relative stereo) [F]
- Motor Activity [1]: 5
- ED50 ([2]; po): 2.4 mg/kg

Structure (SMILES): O=c1[nH]c2cc(Cl)ccc2n1C1CCN(CC2COC(c3ccc(F)cc3)C2)CC1 (stereo not shown) [E]
- Motor Activity [1]: 23
- ED50 ([2]; po): 0.4 mg/kg

Structure (SMILES): O=C1NCN(c2ccccc2)C12CCN(CC1COC(c3ccc(F)cc3)C1)CC2 (stereo not shown) [C]
- Motor Activity [1]: 0
- ED50 ([2]; po): 1.4 mg/kg

Structure (SMILES): O=c1[nH]c2ccccc2n1C1CCN(CC2COC(c3ccc(F)cc3)C2)CC1 (stereo not shown) [B]
- Motor Activity [1]: 4
- ED50 ([2]; po): 2.8 mg/kg
